# Test results: paper PMC5321639, “Design and pharmacodynamics of recombinant NZ2114 histidine mutants with improved activity against methicillin-resistant Staphylococcus aureus” (AMB Express, 2017)
# Values joined by “and” are separate entries in the source; they are usually repeats but may differ in a detail not shown here. Equal values may be shown once. Read-outs that look alike come from different tables or passages of the source. Marks after values point to notes of the source that are not given here. Where a SMILES comes first, the peptide text is derived from it. Bridges are numbered along the chain shown (N, C = ends).
# Experiments:
# S. aureus ATCC43300 [1] = assay: Effect of proteinases on activity (MIC); type: cell-based, Staphylococcus aureus; settings: 1:10 w/w proteinase:peptide, 37 °C for 3 h, then MIC assay
# Experimental: (§1) The peptide solutions were diluted twofold with the range of final concentrations were 0.015–32 µg/ml (0.003–7.273 µM) for purified H1, H2, H3, H6, and H8. The test strains were grown in MHB medium at 37 °C to an OD600 of 0.4 and diluted to 1 × 10^5 CFU/ml. The 10 µl peptide and 90 µl cell suspension were added into each well. All assays were performed in triplicate. The antimicrobial activity of NZ2114 and vancomycin were tested as positive controls. The plates were incubated at 37 °C for 18–24 h. MIC was defined as the lowest peptide concentration of ones at which there was no visible growth (Tian et al. [2009]).
# (§2) The effect of pH, temperature, NaCl concentration and proteinase on the activity of peptides was evaluated. Peptides were diluted twofold, then adjusted to a pH range from 2.0 to 10.0 and incubated at 37 °C for 4 h. The thermal stability of purified peptides was determined after 1-h incubation of peptides at 4, 20, 40, 60, 80 and 100 °C in deionized water, respectively. Aliquots of peptides were incubated in various proteinases solutions [pepsin (pH 2.0), trypsin (pH 8.0), proteinase K (pH 7.0)] at a ratio of 1:10, w/w (proteinase: peptide) at 37 °C for 3 h. For the ion stability, peptides were incubated in 50, 100, 200, 300, 400, 500 mM sodium chloride solutions, respectively. Other methods and conditions were prepared as the MIC assay described above (Li et al. [2015]; Qu et al. [2016]).
# S. aureus ATCC43300 [2] = assay: Effect of temperature on activity (MIC); type: cell-based, Staphylococcus aureus; settings: then MIC assay
# Experimental: as §1, §2
# [3] = tested on: S. aureus ATCC43300 (MRSA); assay: Time-kill curve assay; type: cell-based, Staphylococcus aureus; settings: 1× MIC
# Experimental: Bacterial culture (S. aureus ATCC43300) was diluted to 1 × 10^5 CFU/ml and H1, H2, and H3 were added. […] The mixture was cultivated at 250 rpm, 37 °C. The 100-µl samples were taken from each flask at 0, 2, 4, 6, 8, 12 and 24 h of incubation, and serial dilutions of samples were plated to count visible colonies. Vancomycin was tested in the same way as a positive control and the culture without antimicrobial agent as a negative control (Xiong et al. [2011]). All experiments were performed in triplicate.
# S. aureus ATCC43300 [4] = assay: Postantibiotic effect (PAE); type: cell-based, Staphylococcus aureus; settings: 2 h exposure at 37 °C, 1 × 10^8 CFU/ml, drug removed by 1:10^3 dilution, mean ± SD, n = 3
# Experimental: After 2 h, the drug was removed by diluting 1:10^3 into the MHB and incubated at 37 °C, 250 rpm. The sample was taken to plate counting every 1 h until the bacterial cultures become turbid. The PAE was calculated by the following formula: PAE = T − C, where T is the time needed for the count of CFU in the test culture to increase 1 log10 (10-fold) above the 0 h and C is the time needed for the count of CFU in the untreated control culture to increase 1 log10 above the 0 h (Giguère et al. [2012]).
# S. aureus ATCC43300 [5] = assay: microbe, parasite or virus in culture; type: cell-based, Staphylococcus aureus; settings: for MICc (MIC of the most effective combination): checkerboard; for FIC: MICc/MICa
# Experimental: The MIC values of four antibiotics (vancomycin, ampicillin, rifampicin and ciprofloxacin) to S. aureus ATCC43300 were tested as the MIC assay described above. The peptide solutions and antibiotics were diluted twofold with the final concentrations ranging from 1/16 to 8× MIC, and added into 96-well plates in a checkerboard fashion (White et al. [1996]). The results of combination were evaluated by calculating the fractional inhibitory concentration index (FICI) of each combination. FIC of H1, H2, H3=MIC of H1, H2, H3, respectively, in combination with antibiotic/MIC of H1, H2, H3 alone; FIC of antibiotics=MIC of antibiotic in combination with peptide/MIC of antibiotic alone; FICI = FIC of H1, H2, H3+ antibiotic, respectively. The result of interaction between two antimicrobial drugs was determined according to: FICI ≤ 0.5 refers to synergy, 0.5 < FICI ≤ 1 refers to additivity, 1 < FICI ≤ 4 refers to indifference, and FICI > 4 is defined as antagonism (Tsuji and Rybak [2006]).
# S. aureus ATCC43300 [6] = assay: Effect of NaCl concentration on activity (MIC); type: cell-based, Staphylococcus aureus
# Experimental: as §1, §2
# mice red blood cells = assay: Hemolytic assay; type: cell-based; settings: 0.23 to 7.27 μM (1–32 μg/ml), 37 °C 1 h
# Experimental: The mice blood cells were washed three times in stroke-physiological saline solution (0.9% NaCl) and centrifuged at 4 °C, 2000 rpm for 5 min. A 50-μl cell was diluted to 8% (v/v), added into 96-well plates, and mixed with 50-μl peptide to the final concentrations ranging from […]. The plates were incubated at 37 °C for 1 h, and centrifuged at 4 °C, 5000 rpm for 5 min. The absorbance of supernatants was measured at 540 nm, and 0 and 100% hemolysis was measured by 0.9% NaCl and 0.1% Triton X-100, respectively. The hemolysis percentages were calculated by the following equation: [(Abs540 nm in H1, H2, H3 solution − Abs540 nm in 0.9% NaCl)/(Abs540 nm in 0.1% Triton X-100 − Abs540 nm in 0.9% NaCl)] ×100% (Jiao et al. [2015]).
# S. aureus ATCC43300 [7] = assay: Effect of pH on activity (MIC); type: cell-based, Staphylococcus aureus; settings: then MIC assay
# Experimental: as §1, §2
# S. suis CVCC3309 = settings: data from previous results; ref Jiao et al. [2015]; cited from earlier work
# Source text: (§3) Table 2 MIC assays of H1, H2, H3, H6, H8, NZ2114, and vancomycin against G^+ and G^− pathogens | column: MIC (μM) / Van
# S. suis CVCC606 = settings: data from previous results; ref Jiao et al. [2015]; cited from earlier work
# Source text: as §3
# S. suis CVCC3928 = settings: data from previous results; ref Jiao et al. [2015]; cited from earlier work
# Source text: as §3
# S. aureus ATCC25923 = assay: MIC assay; type: cell-based, Staphylococcus aureus; settings: Staphylococcus aureus, ATCC25923; MHB, 1 × 10^5 CFU/ml, 37 °C, 18–24 h, no visible growth, triplicate
# Experimental: as §1
# S. aureus ATCC6538 = assay: MIC assay; type: cell-based, Staphylococcus aureus; settings: Staphylococcus aureus, ATCC6538; MHB, 1 × 10^5 CFU/ml, 37 °C, 18–24 h, no visible growth, triplicate
# Experimental: as §1
# [8] = tested on: S. aureus ATCC43300 (MRSA); assay: MIC assay; type: cell-based; settings: Staphylococcus aureus; MHB, 1 × 10^5 CFU/ml, 37 °C, 18–24 h, no visible growth, triplicate
# Experimental: as §1
# rabbit and human RBCs = settings: ref Yang et al. [2011], Zhang et al. [2014]; cited from earlier work
# Source text: Although the values were higher than NZ2114 due to the high charge and hydrophilicity, they were still very low in the range of MICs. […] Owing to contribution from the three pairs of disulfide bond into th ...
compound,measurement,setting,value
"CC[C@H](C)[C@@H]1NC(=O)[C@H](CO)NC(=O)[C@H](CCCCN)NC(=O)[C@@H]2CSSC[C@@H](C(=O)N[C@@H](Cc3ccc(O)cc3)C(=O)O)NC(=O)[C@H](CCCCN)NC(=O)[C@@H]3CSSC[C@H](NC(=O)[C@H](CCCNC(=N)N)NC(=O)[C@H](CC(C)C)NC(=O)[C@H](CC(=O)O)NC(=O)[C@H](CC(=O)O)NC(=O)[C@H](CCC(=O)O)NC(=O)[C@H](CC(N)=O)NC(=O)[C@H](Cc4c[nH]c5ccccc45)NC(=O)[C@@H]4CCCN4C(=O)CNC(=O)[C@H](CC(N)=O)NC(=O)[C@@H](NC(=O)CNC(=O)[C@H](Cc4ccccc4)NC(=O)CN)CSSC[C@H](NC(=O)[C@H](Cc4ccc(O)cc4)NC(=O)CNC(=O)CNC(=O)[C@H](CCCCN)NC(=O)[C@H](Cc4ccc(O)cc4)NC(=O)CNC(=O)[C@H](CCCCN)NC1=O)C(=O)N[C@@H](C)C(=O)N[C@@H](CCCCN)C(=O)NCC(=O)NCC(=O)N[C@@H](Cc1ccccc1)C(=O)N[C@@H](C(C)C)C(=O)N3)C(=O)N[C@@H](Cc1c[nH]cn1)C(=O)N[C@@H](CC(N)=O)C(=O)N[C@@H](CCCCN)C(=O)N2 [H3] (H-GFGCNGPWNEDDLRCHNKCKSIKGYKGGYCAKGGFVCKCY-OH; disulfide 4-30, 15-37, 19-39 (inferred); N-terminus and C-terminus assumed)",MIC after Pepsin,S. aureus ATCC43300 [1]; pepsin (pH 2.0),0.057 µM
same,MIC after Proteinase K,S. aureus ATCC43300 [1]; proteinase K (pH 7.0),0.114 µM
same,MIC after Trypsin,S. aureus ATCC43300 [1]; trypsin (pH 8.0),0.057 µM
same,MIC after incubation at 4 °C,S. aureus ATCC43300 [2]; 1 h at 4 °C in deionized water,0.057 µM
same,MIC after incubation at 20 °C,S. aureus ATCC43300 [2]; 1 h at 20 °C in deionized water,0.057 µM
same,MIC after incubation at 40 °C,S. aureus ATCC43300 [2]; 1 h at 40 °C in deionized water,0.057 µM
same,MIC after incubation at 60 °C,S. aureus ATCC43300 [2]; 1 h at 60 °C in deionized water,0.057 µM
same,MIC after incubation at 80 °C,S. aureus ATCC43300 [2]; 1 h at 80 °C in deionized water,0.057 µM
same,MIC after incubation at 100 °C,S. aureus ATCC43300 [2]; 1 h at 100 °C in deionized water,0.114 µM
same,incubation time after which regrowth occurred,[3],8 h
same,PAE,S. aureus ATCC43300 [4]; 1× MIC,0.55 h and 0.55 ± 0.13 h
same,PAE,S. aureus ATCC43300 [4]; 2× MIC,1.55 ± 0.07 h
same,MICc (MIC of the most effective combination),S. aureus ATCC43300 [5]; in combination with ampicillin,0.056 µM
same,MICc (MIC of the most effective combination),S. aureus ATCC43300 [5]; in combination with ciprofloxacin,0.056 µM
same,MICc (MIC of the most effective combination),S. aureus ATCC43300 [5]; in combination with rifampicin,0.056 µM
same,MICc (MIC of the most effective combination),S. aureus ATCC43300 [5]; in combination with vancomycin,0.028 µM
same,MIC,"S. aureus ATCC43300 [5]; drug alone, read-out: MICa (MIC of drug alone)",0.056 µM
same,MIC in 50 mM NaCl,S. aureus ATCC43300 [6]; incubated in 50 mM sodium chloride solution,0.057 µM
same,MIC in 100 mM NaCl,S. aureus ATCC43300 [6]; incubated in 100 mM sodium chloride solution,0.057 µM
same,MIC in 200 mM NaCl,S. aureus ATCC43300 [6]; incubated in 200 mM sodium chloride solution,0.057 µM
same,MIC in 300 mM NaCl,S. aureus ATCC43300 [6]; incubated in 300 mM sodium chloride solution,0.057 µM
same,MIC in 400 mM NaCl,S. aureus ATCC43300 [6]; incubated in 400 mM sodium chloride solution,0.114 µM
same,hemolytic activity,mice red blood cells,little or no hemolytic activity
same,MIC after incubation at pH2,"S. aureus ATCC43300 [7]; pH 2, 37 °C for 4 h",0.057 μM
same,MIC after incubation at pH4,"S. aureus ATCC43300 [7]; pH 4, 37 °C for 4 h",0.057 μM
same,MIC after incubation at pH6,"S. aureus ATCC43300 [7]; pH 6, 37 °C for 4 h",0.114 μM
same,MIC after incubation at pH8,"S. aureus ATCC43300 [7]; pH 8, 37 °C for 4 h",0.057 μM
same,MIC after incubation at pH10,"S. aureus ATCC43300 [7]; pH 10, 37 °C for 4 h",0.057 μM
CN[C@H](CC(C)C)C(=O)N[C@H]1C(=O)N[C@@H](CC(N)=O)C(=O)N[C@H]2C(=O)N[C@H]3C(=O)N[C@H](C(=O)N[C@H](C(=O)O)c4cc(O)cc(O)c4-c4cc3ccc4O)[C@H](O)c3ccc(c(Cl)c3)Oc3cc2cc(c3O[C@@H]2O[C@H](CO)[C@@H](O)[C@H](O)[C@H]2O[C@H]2C[C@](C)(N)[C@H](O)[C@H](C)O2)Oc2ccc(cc2Cl)[C@H]1O [vancomycin],PAE,S. aureus ATCC43300 [4]; 2× MIC,1.72 ± 0.11 h
same,MIC,S. suis CVCC3309,0.172^b μM
same,MIC,S. suis CVCC606,0.172^b μM
same,MIC,S. suis CVCC3928,0.172^b μM
same,MIC,"S. aureus ATCC43300 [5]; Staphylococcus aureus, ATCC43300, read-out: MICa (MIC of drug alone)",0.714 µM
same,MICc (MIC of the most effective combination),S. aureus ATCC43300 [5]; in combination with H1,0.714 µM
same,MICc (MIC of the most effective combination),S. aureus ATCC43300 [5]; in combination with H2,0.714 µM
same,MICc (MIC of the most effective combination),S. aureus ATCC43300 [5]; in combination with H3,0.714 µM
same,FIC,S. aureus ATCC43300 [5]; in combination with H1,1
same,FIC,S. aureus ATCC43300 [5]; in combination with H2,1
same,FIC,S. aureus ATCC43300 [5]; in combination with H3,1
same,MIC,S. aureus ATCC25923,0.172 µM
same,MIC,S. aureus ATCC6538,1.43 µM
same,MIC,[8],0.714 µM
Plectasin,hemolysis,rabbit and human RBCs,no hemolysis
